Results from PubChem BioAssay AID256 (DTP/NCI, 2004).
“And” between values parts separate entries of the source, which are not always exact repeats. Equal entries are not always repeated. Toxic doses and inconclusive results are not listed.

Test system: CD2F1 mice, L1210 leukemia ip, survival T/C
Assay: NCI In Vivo Anticancer Drug Screen. Data for tumor model L1210 Leukemia (intraperitoneal) in CD2F1 (CDF1) mice
Settings: higher = longer survival
Procedure, shortened: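 Transplantable tumor in mice; compound-treated vs vehicle-treated groups. Read-out = treated/control ratio of the measured endpoint.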

[1] = endpoint: mean survival time, dose: 100.0 mg/kg/injection, schedule: Q04DX003 (ip), vehicle: saline with Tween-80
[2] = endpoint: mean survival time, dose: 200.0 mg/kg/injection, schedule: Q04DX003 (ip), vehicle: saline with Tween-80
[3] = endpoint: mean survival time, dose: 400.0 mg/kg/injection, schedule: Q04DX003 (ip), vehicle: saline with Tween-80
[4] = endpoint: mean survival time, dose: 25.0 mg/kg/injection, schedule: Q04DX003 (ip), vehicle: saline with Tween-80
[5] = endpoint: mean survival time, dose: 50.0 mg/kg/injection, schedule: Q04DX003 (ip), vehicle: saline with Tween-80
[6] = endpoint: mean survival time, dose: 100.0 mg/kg/injection, schedule: Q01DX009 (ip), vehicle: saline with Tween-80
[7] = endpoint: mean survival time, dose: 200.0 mg/kg/injection, schedule: Q01DX009 (ip), vehicle: saline with Tween-80
[8] = endpoint: mean survival time, dose: 400.0 mg/kg/injection, schedule: Q01DX009 (ip), vehicle: saline with Tween-80
[9] = endpoint: mean survival time, dose: 100.0 mg/kg/injection, schedule: Q01DX001 (ip), vehicle: saline
[10] = endpoint: mean survival time, dose: 200.0 mg/kg/injection, schedule: Q01DX001 (ip), vehicle: saline
[11] = endpoint: mean survival time, dose: 400.0 mg/kg/injection, schedule: Q01DX001 (ip), vehicle: saline
[12] = endpoint: mean survival time, dose: 100.0 mg/kg/injection, schedule: Q01DX001 (ip), vehicle: saline with Tween-80
[13] = endpoint: mean survival time, dose: 200.0 mg/kg/injection, schedule: Q01DX001 (ip), vehicle: saline with Tween-80
[14] = endpoint: mean survival time, dose: 100.0 mg/kg/injection, schedule: Q04DX002 (ip), vehicle: saline with Tween-80
[15] = endpoint: mean survival time, dose: 200.0 mg/kg/injection, schedule: Q04DX002 (ip), vehicle: saline with Tween-80
[16] = endpoint: mean survival time, dose: 400.0 mg/kg/injection, schedule: Q04DX002 (ip), vehicle: saline with Tween-80
[17] = endpoint: mean survival time, dose: 200.0 mg/kg/injection, schedule: Q04DX003 (ip), vehicle: saline

N#C[Se-].c1ccc([Te+](c2ccccc2)c2ccccc2)cc1
T/C (endpoint: median survival time, dose: 1.56 mg/kg/injection, schedule: Q01DX009 (ip), vehicle: Klucel (hydroxypropylcellulose) (HPC)): 109 % of control | T/C (endpoint: median survival time, dose: 3.12 mg/kg/injection, schedule: Q01DX009 (ip), vehicle: Klucel (hydroxypropylcellulose) (HPC)): 104 % of control | T/C (endpoint: median survival time, dose: 6.25 mg/kg/injection, schedule: Q01DX009 (ip), vehicle: Klucel (hydroxypropylcellulose) (HPC)): 105 % of control | T/C (endpoint: median survival time, dose: 12.5 mg/kg/injection, schedule: Q01DX009 (ip), vehicle: Klucel (hydroxypropylcellulose) (HPC)): 103 % of control

O=C(O)COc1ccc(-c2ccccc2)cc1
T/C [1]: 104 % of control | T/C [2]: 90 % of control | T/C [3]: 101 % of control

O=C1NCC2(CCN(Cc3ccccc3)CC2)N1c1ccccc1
T/C [1]: 93 % of control | T/C [2]: 89 % of control | T/C [3]: 89 % of control

CCCCC(NCCNC(CCCC)C(=O)O)C(=O)O (stereo not drawn)
T/C [1]: 102 % of control | T/C [2]: 91 % of control | T/C [3]: 107 % of control

[CH3][Sn]([CH3])([CH3])[CH2]CCBr
T/C (endpoint: mean survival time, dose: 0.39 mg/kg/injection, schedule: Q01DX009 (ip), vehicle: saline): 107 % of control | T/C (endpoint: mean survival time, dose: 0.78 mg/kg/injection, schedule: Q01DX009 (ip), vehicle: saline): 107 % of control | T/C (endpoint: mean survival time, dose: 50.0 mg/kg/injection, schedule: Q01DX009 (ip), vehicle: saline): 89 % of control

CCOC(=O)C(NC(N)=O)C(=O)OCC
T/C (endpoint: mean survival time, dose: 25.0 mg/kg/injection, schedule: Q01DX009 (ip), vehicle: water): 91 % of control | T/C (endpoint: mean survival time, dose: 50.0 mg/kg/injection, schedule: Q01DX009 (ip), vehicle: water): 91 % of control | T/C (endpoint: mean survival time, dose: 100.0 mg/kg/injection, schedule: Q01DX009 (ip), vehicle: water): 93 % of control | T/C (endpoint: mean survival time, dose: 200.0 mg/kg/injection, schedule: Q01DX009 (ip), vehicle: water): 89 % of control | T/C (endpoint: mean survival time, dose: 400.0 mg/kg/injection, schedule: Q01DX009 (ip), vehicle: water): 93 % of control

O=C1C(Cl)=C(NCc2ccc(Cl)cc2)C(=O)c2ccccc21
T/C [4]: 102 % of control | T/C [5]: 91 % of control | T/C [1]: 91 % of control

S=c1[nH]c2ccccc2[nH]c1=S
T/C (endpoint: mean survival time, dose: 10.0 mg/kg/injection, schedule: Q01DX001 (ip), vehicle: Klucel (hydroxypropylcellulose) (HPC)): 103 % of control | T/C (endpoint: mean survival time, dose: 20.0 mg/kg/injection, schedule: Q01DX001 (ip), vehicle: Klucel (hydroxypropylcellulose) (HPC)): 108 % of control

O=C(O)CCNc1ccc2c(c1)B(O)OC2
T/C [1]: 98 % of control | T/C [2]: 101 % of control | T/C [3]: 98 % of control

CC(C)(C)C(=O)CC(=O)C(C)(C)C.CC(C)(C)C(=O)CC(=O)C(C)(C)C.CC(C)(C)C(=O)CC(=O)C(C)(C)C.[Sc]
T/C [5]: 94 % of control | T/C [1]: 94 % of control and 100 % of control | T/C [2]: 97 % of control and 104 % of control | T/C [3]: 95 % of control

Cn1sc2ccccc2c1=S
T/C [1]: 101 % of control | T/C [2]: 96 % of control | T/C [3]: 95 % of control

Cc1c(C)c([N+](=O)[O-])c(Br)c(C)c1[N+](=O)[O-]
T/C [6]: 103 % of control | T/C [1]: 95 % of control | T/C [7]: 97 % of control | T/C [2]: 88 % of control | T/C [8]: 101 % of control | T/C [3]: 87 % of control

NC(CCSCc1ccc(N(CCCl)CCCl)cc1)C(=O)O (stereo not drawn)
T/C (endpoint: mean survival time, dose: 14.0 mg/kg/injection, schedule: Q01DX009 (ip), vehicle: carboxymethylcellulose (CMC)): 152 % of control

O=C(O)C1(C(=O)O)CC2(CCC2)C1
T/C [9]: 100 % of control | T/C [10]: 100 % of control | T/C [11]: 100 % of control

CC(=O)Nc1ccc(S(=O)(=O)OCCCl)cc1
T/C [1]: 96 % of control | T/C [2]: 110 % of control | T/C [3]: 102 % of control

CCC[CH2][Sn]1([CH2]CCC)[O]OC(c2ccc(C(=O)OCC)cc2)[O]1 (stereo not drawn)
T/C (endpoint: mean survival time, dose: 1.56 mg/kg/injection, schedule: Q04DX002 (ip), vehicle: other): 101 % of control | T/C (endpoint: mean survival time, dose: 3.13 mg/kg/injection, schedule: Q04DX002 (ip), vehicle: other): 116 % of control

Nc1ncnc2c1ncn2C1OC2COP(=O)(O)OC2C1OCc1ccccc1 (stereo not drawn)
T/C (endpoint: mean survival time, dose: 100.0 mg/kg/injection, schedule: Q01DX005 (ip), vehicle: saline): 103 % of control | T/C (endpoint: mean survival time, dose: 200.0 mg/kg/injection, schedule: Q01DX005 (ip), vehicle: saline): 94 % of control

COc1ccc(OC)c2[nH]c(=O)c(CCC(=O)O)nc12
T/C [12]: 98 % of control | T/C [13]: 92 % of control

Cc1ccc(Cl)cc1NC(=O)OCC(C)C
T/C [14]: 90 % of control | T/C [15]: 93 % of control | T/C [16]: 90 % of control

c1ccc2cc(OCCOCCOc3ccc4ccccc4c3)ccc2c1
T/C [12]: 103 % of control | T/C [13]: 100 % of control | T/C (endpoint: mean survival time, dose: 400.0 mg/kg/injection, schedule: Q01DX001 (ip), vehicle: saline with Tween-80): 97 % of control

c1ccc2[nH]c(CCCCc3nc4ccccc4[nH]3)nc2c1
T/C (endpoint: mean survival time, dose: 100.0 mg/kg/injection, schedule: Q04DX003 (ip), vehicle: saline): 104 % of control | T/C [17]: 100 % of control

CCCCCCCCCCCCCCCCCCc1ccc(O)cc1O
T/C [6]: 96 % of control | T/C [7]: 101 % of control | T/C [8]: 104 % of control

O=C(O)C1C=CC(C(=O)O)c2ccccc21 (stereo not drawn)
T/C (endpoint: mean survival time, dose: 100.0 mg/kg/injection, schedule: Q01DX001 (ip), vehicle: Klucel (hydroxypropylcellulose) (HPC)): 91 % of control | T/C (endpoint: mean survival time, dose: 200.0 mg/kg/injection, schedule: Q01DX001 (ip), vehicle: Klucel (hydroxypropylcellulose) (HPC)): 90 % of control | T/C (endpoint: mean survival time, dose: 400.0 mg/kg/injection, schedule: Q01DX001 (ip), vehicle: Klucel (hydroxypropylcellulose) (HPC)): 91 % of control

Cc1ccc(C(=O)CCl)c(C)c1
T/C (endpoint: mean survival time, dose: 25.0 mg/kg/injection, schedule: Q04DX003 (ip), vehicle: Klucel (hydroxypropylcellulose) (HPC)): 102 % of control | T/C (endpoint: mean survival time, dose: 50.0 mg/kg/injection, schedule: Q04DX003 (ip), vehicle: Klucel (hydroxypropylcellulose) (HPC)): 103 % of control

BrCCC1(CCBr)CCCCC1
T/C (endpoint: median survival time, dose: 50.0 mg/kg/injection, schedule: Q01DX009 (ip), vehicle: other): 104 % of control | T/C (endpoint: median survival time, dose: 200.0 mg/kg/injection, schedule: Q01DX009 (ip), vehicle: other): 101 % of control | T/C (endpoint: median survival time, dose: 400.0 mg/kg/injection, schedule: Q01DX009 (ip), vehicle: other): 101 % of control | T/C (endpoint: median survival time, dose: 800.0 mg/kg/injection, schedule: Q01DX009 (ip), vehicle: other): 101 % of control

Cn1nc(C#N)c2ccccc21
T/C [9]: 100 % of control | T/C [10]: 102 % of control | T/C [11]: 103 % of control

OCCN1CCN(CCCN2c3ccccc3Sc3ccc(Cl)cc32)CC1
T/C (endpoint: mean survival time, dose: 6.25 mg/kg/injection, schedule: Q01DX009 (ip), vehicle: Klucel (hydroxypropylcellulose) (HPC)): 93 % of control | T/C (endpoint: mean survival time, dose: 6.25 mg/kg/injection, schedule: Q04DX002 (ip), vehicle: Klucel (hydroxypropylcellulose) (HPC)): 96 % of control | T/C (endpoint: mean survival time, dose: 12.5 mg/kg/injection, schedule: Q01DX009 (ip), vehicle: Klucel (hydroxypropylcellulose) (HPC)): 96 % of control | T/C (endpoint: mean survival time, dose: 12.5 mg/kg/injection, schedule: Q04DX002 (ip), vehicle: Klucel (hydroxypropylcellulose) (HPC)): 91 % of control | T/C (endpoint: mean survival time, dose: 25.0 mg/kg/injection, schedule: Q01DX009 (ip), vehicle: Klucel (hydroxypropylcellulose) (HPC)): 116 % of control | T/C (endpoint: mean survival time, dose: 25.0 mg/kg/injection, schedule: Q04DX003 (ip), vehicle: saline): 108 % of control and 110 % of control | T/C (endpoint: mean survival time, dose: 25.0 mg/kg/injection, schedule: Q04DX009 (ip), vehicle: Klucel (hydroxypropylcellulose) (HPC)): 113 % of control | T/C (endpoint: mean survival time, dose: 50.0 mg/kg/injection, schedule: Q04DX003 (ip), vehicle: saline): 110 % of control | T/C [17]: 116 % of control

Cc1ccc(S(=O)(=O)N/N=C2/C=C3C/C(=N\NS(=O)(=O)c4ccc(C)cc4)C=C3C2)cc1
T/C (endpoint: mean survival time, dose: 50.0 mg/kg/injection, schedule: Q01DX009 (ip), vehicle: saline with Tween-80): 93 % of control | T/C [6]: 89 % of control | T/C [7]: 89 % of control

Brc1ccc2sc3ccccc3c2c1
T/C [14]: 102 % of control | T/C [15]: 89 % of control | T/C [16]: 91 % of control

Cc1ccc(C(=O)NN)cc1
T/C [4]: 96 % of control | T/C [5]: 96 % of control | T/C [1]: 95 % of control and 107 % of control

CC(C)c1ccc(P(c2ccc(C(C)C)cc2)c2ccc(C(C)C)cc2)cc1
T/C (endpoint: mean survival time, dose: 25.0 mg/kg/injection, schedule: Q04DX002 (ip), vehicle: saline with Tween-80): 103 % of control | T/C (endpoint: mean survival time, dose: 50.0 mg/kg/injection, schedule: Q04DX002 (ip), vehicle: saline with Tween-80): 88 % of control | T/C [14]: 88 % of control

[N-]=[N+]=NC1=C(c2ccccc2)C(=O)C=C(c2ccccc2)C1=O
T/C [4]: 94 % of control | T/C [5]: 94 % of control | T/C [1]: 101 % of control and 102 % of control | T/C [3]: 101 % of control
